In PubChem BioAssay AID248 (DTP/NCI, 2004):
“And” between values parts separate entries of the source, which are not always exact repeats. Equal values may be shown once. Inconclusive results and toxic doses are left out. Rule as the data show it: active = T/C of 150% or more; inactive = T/C below 125%.

Test system: L1210 leukemia ip in BDF1 mice, survival T/C
Assay: NCI In Vivo Anticancer Drug Screen. Data for tumor model L1210 Leukemia (intraperitoneal) in B6D2F1 (BDF1) mice
Conditions: endpoint: mean survival time, higher = longer survival
Method in brief: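 In this screen, tumor-bearing mice given compound are compared to those given vehicle, and their survival values are reported as a treated-to-control quotient.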

[1] = dose: 100.0 mg/kg/injection, schedule: Q04DX003 (ip), vehicle: Klucel (hydroxypropylcellulose) (HPC)
[2] = dose: 200.0 mg/kg/injection, schedule: Q04DX003 (ip), vehicle: Klucel (hydroxypropylcellulose) (HPC)
[3] = dose: 400.0 mg/kg/injection, schedule: Q04DX003 (ip), vehicle: Klucel (hydroxypropylcellulose) (HPC)
[4] = dose: 100.0 mg/kg/injection, schedule: Q04DX002 (ip), vehicle: Klucel (hydroxypropylcellulose) (HPC)
[5] = dose: 100.0 mg/kg/injection, schedule: Q01DX009 (ip), vehicle: saline with Tween-80
[6] = dose: 100.0 mg/kg/injection, schedule: Q01DX009 (ip), vehicle: Klucel (hydroxypropylcellulose) (HPC)
[7] = dose: 200.0 mg/kg/injection, schedule: Q01DX009 (ip), vehicle: Klucel (hydroxypropylcellulose) (HPC)
[8] = dose: 400.0 mg/kg/injection, schedule: Q01DX009 (ip), vehicle: Klucel (hydroxypropylcellulose) (HPC)
[9] = dose: 200.0 mg/kg/injection, schedule: Q04DX002 (ip), vehicle: Klucel (hydroxypropylcellulose) (HPC)
[10] = dose: 400.0 mg/kg/injection, schedule: Q04DX002 (ip), vehicle: Klucel (hydroxypropylcellulose) (HPC)
[11] = dose: 100.0 mg/kg/injection, schedule: Q01DX001 (ip), vehicle: saline
[12] = dose: 200.0 mg/kg/injection, schedule: Q01DX001 (ip), vehicle: saline
[13] = dose: 400.0 mg/kg/injection, schedule: Q01DX001 (ip), vehicle: saline
[14] = dose: 50.0 mg/kg/injection, schedule: Q01DX001 (ip), vehicle: carboxymethylcellulose (CMC)
[15] = dose: 100.0 mg/kg/injection, schedule: Q01DX001 (ip), vehicle: carboxymethylcellulose (CMC)
[16] = dose: 200.0 mg/kg/injection, schedule: Q01DX001 (ip), vehicle: carboxymethylcellulose (CMC)
[17] = dose: 400.0 mg/kg/injection, schedule: Q01DX001 (ip), vehicle: carboxymethylcellulose (CMC)
[18] = dose: 75.0 mg/kg/injection, schedule: Q01DX001 (ip), vehicle: saline

Measured: T/C

CN(C)CCN=Cc1[nH]c(=S)[nH]c(=O)c1Cc1ccc(Cl)cc1
inactive: [1] 101 % of control | [2] 94 % of control | [3] 95 % of control

COc1cc(OC)c(OC)cc1/C=C/c1cc[n+](C)c2ccccc12
inactive: dose: 25.0 mg/kg/injection, schedule: Q04DX002 (ip), vehicle: Klucel (hydroxypropylcellulose) (HPC) 95 % of control | dose: 50.0 mg/kg/injection, schedule: Q04DX002 (ip), vehicle: Klucel (hydroxypropylcellulose) (HPC) 101 % of control | [4] 109 % of control and 111 % of control

CC(C1CCC/C(=N\NC(N)=O)C1)[N+](=O)[O-] (centres undefined)
inactive: dose: 25.0 mg/kg/injection, schedule: Q01DX009 (ip), vehicle: saline with Tween-80 95 % of control | dose: 50.0 mg/kg/injection, schedule: Q01DX009 (ip), vehicle: saline with Tween-80 104 % of control | [5] 89 % of control | dose: 100.0 mg/kg/injection, schedule: Q04DX003 (ip), vehicle: saline with Tween-80 90 % of control | dose: 200.0 mg/kg/injection, schedule: Q04DX003 (ip), vehicle: saline with Tween-80 98 % of control

c1ccc2cc(B(c3cccc4ccccc34)c3cccc4ccccc34)ccc2c1
inactive: dose: 12.5 mg/kg/injection, schedule: Q04DX002 (ip), vehicle: saline with Tween-80 102 % of control | dose: 25.0 mg/kg/injection, schedule: Q04DX002 (ip), vehicle: saline with Tween-80 94 % of control | dose: 50.0 mg/kg/injection, schedule: Q04DX002 (ip), vehicle: saline with Tween-80 105 % of control

C[N+](C)(C)/N=C/C1=C(Cl)CCCC1
inactive: dose: 3.13 mg/kg/injection, schedule: Q04DX002 (ip), vehicle: Klucel (hydroxypropylcellulose) (HPC) 94 % of control | dose: 6.25 mg/kg/injection, schedule: Q04DX002 (ip), vehicle: Klucel (hydroxypropylcellulose) (HPC) 102 % of control | dose: 12.5 mg/kg/injection, schedule: Q04DX002 (ip), vehicle: Klucel (hydroxypropylcellulose) (HPC) 97 % of control | dose: 75.0 mg/kg/injection, schedule: Q01DX001 (ip), vehicle: carboxymethylcellulose (CMC) 114 % of control

CCC(C)NC(=O)NC (centres undefined)
inactive: [6] 100 % of control | [7] 97 % of control | [8] 101 % of control

CC(=O)C(Br)C(C)=O.CC(=O)C(Br)C(C)=O.CC(=O)C(Br)C(C)=O.[Rh]
inactive: dose: 50.0 mg/kg/injection, schedule: Q01DX001 (ip), vehicle: other 97 % of control | dose: 100.0 mg/kg/injection, schedule: Q01DX001 (ip), vehicle: other 96 % of control | dose: 200.0 mg/kg/injection, schedule: Q01DX001 (ip), vehicle: other 94 % of control | dose: 400.0 mg/kg/injection, schedule: Q01DX001 (ip), vehicle: other 94 % of control

CC1=CS(=O)(=O)CC(=O)N1
inactive: [5] 101 % of control | dose: 200.0 mg/kg/injection, schedule: Q01DX009 (ip), vehicle: saline with Tween-80 100 % of control | dose: 400.0 mg/kg/injection, schedule: Q01DX009 (ip), vehicle: saline with Tween-80 97 % of control

COc1ccc(NC(=O)c2cccc(C(=O)Nc3ccc(OC)cc3)c2)cc1
inactive: [6] 88 % of control | [1] 93 % of control | [7] 97 % of control | [2] 88 % of control | [8] 97 % of control | [3] 93 % of control

COC(=O)c1cc(Cl)ccc1OCC(=O)Nc1cccc([N+](=O)[O-])c1
inactive: [6] 96 % of control | [4] 94 % of control | dose: 100.0 mg/kg/injection, schedule: Q04DX002 (ip), vehicle: saline 94 % of control | [7] 89 % of control | [9] 92 % of control | dose: 200.0 mg/kg/injection, schedule: Q04DX002 (ip), vehicle: saline 97 % of control | [8] 104 % of control | [10] 92 % of control | dose: 400.0 mg/kg/injection, schedule: Q04DX002 (ip), vehicle: saline 97 % of control

COc1cc(C=Nc2cccc(C(F)(F)F)c2)ccc1OC(=O)c1ccccc1
inactive: [6] 86 % of control | [7] 94 % of control | [8] 91 % of control

COc1cc(/C=C\[N+](=O)[O-])ccc1OCc1ccccc1
inactive: dose: 50.0 mg/kg/injection, schedule: Q01DX009 (ip), vehicle: Klucel (hydroxypropylcellulose) (HPC) 94 % of control | dose: 50.0 mg/kg/injection, schedule: Q04DX003 (ip), vehicle: Klucel (hydroxypropylcellulose) (HPC) 98 % of control | [6] 103 % of control | [1] 104 % of control | [7] 95 % of control | [2] 91 % of control

Cc1cc(=O)[nH]c(=O)n1C1OC(CO)C(O)C1O (centres undefined)
inactive: [11] 108 % of control | [12] 102 % of control | [13] 98 % of control

CC(C)=CCc1c2c(c3occ(-c4ccc(O)cc4)c(=O)c3c1O)C=CC(C)(C)O2
inactive: [1] 88 % of control | [3] 88 % of control

CS(=O)(=O)OCCN(CCOS(C)(=O)=O)c1ccc([N+](=O)[O-])c(F)c1
inactive: dose: 50.0 mg/kg/injection, schedule: Q01DX001 (ip), vehicle: saline 110 % of control | [11] 112 % of control | [12] 115 % of control | [13] 105 % of control

CC(=O)Oc1ccccc1[N+](=O)[O-]
inactive: [6] 106 % of control | [7] 91 % of control

O=C1c2ccccc2CC/C(=N\O)C1c1ccccc1 (centres undefined)
inactive: dose: 100.0 mg/kg/injection, schedule: Q01DX001 (ip), vehicle: saline with Tween-80 107 % of control | dose: 200.0 mg/kg/injection, schedule: Q01DX001 (ip), vehicle: saline with Tween-80 98 % of control | dose: 400.0 mg/kg/injection, schedule: Q01DX001 (ip), vehicle: saline with Tween-80 104 % of control

COc1cccc(NC(=S)NC(Cc2ccccc2)c2ccccc2)c1 (centres undefined)
inactive: [4] 94 % of control | [9] 101 % of control | [10] 97 % of control

Cc1cc(N(CCCl)CCCl)ccc1C=Nc1ccc(-c2csc(-c3ccccc3)n2)cc1
inactive: [14] 103 % of control | [15] 94 % of control | [16] 97 % of control | [17] 100 % of control

O=[N+]([O-])c1ccc([As](=O)(O)c2ccc([N+](=O)[O-])cc2)cc1
inactive: [18] 95 % of control | dose: 150.0 mg/kg/injection, schedule: Q01DX001 (ip), vehicle: saline 100 % of control

CC1CN1CO (centres undefined)
inactive: [18] 109 % of control

COc1ccc(OC)c(CCCl)c1
inactive: dose: 100.0 mg/kg/injection, schedule: Q01DX001 (ip), vehicle: acetone 91 % of control | dose: 200.0 mg/kg/injection, schedule: Q01DX001 (ip), vehicle: acetone 93 % of control | dose: 400.0 mg/kg/injection, schedule: Q01DX001 (ip), vehicle: acetone 88 % of control

COc1ccc(C)cc1NC(=O)c1ccc(Cl)cc1Cl
inactive: [6] 98 % of control | [7] 101 % of control | [8] 97 % of control

Nc1ccc2c(c1)S(=O)(=O)c1cc(N)c(S(=O)(=O)O)cc1-2
inactive: [4] 115 % of control | [9] 94 % of control | [10] 97 % of control

CCCCCC/S(C)=N\S(=O)(=O)c1ccc(Br)cc1 (centres undefined)
inactive: [14] 100 % of control | [15] 103 % of control | [16] 97 % of control | [17] 114 % of control
